Experimental data taken from the kinase profiling compilation of Christmann-Franck et al. (2016).

How the values were obtained:
PIK3C3 (human) = PIK3C3 (human) (UniProt Q8NEB9)
PI4KB (human) = PI4KB (human) (UniProt Q9UBF8)
PI4KA (human) = PI4KA (human) (UniProt P42356)
PIK3C2A (human) = PIK3C2A (human) (UniProt O00443)
PIK3C2B (human) = PIK3C2B (human) (UniProt O00750)
DYRK1A (human) = DYRK1A (human) (UniProt Q13627)
CSK (human) = CSK (human) (UniProt P41240)
YES1 (human) = YES1 (human) (UniProt P07947)
INSRR (human) = INSRR (human) (UniProt P14616)
EPHA2 (human) = EPHA2 (human) (UniProt P29317)
CaMK1 (human) = CaMK1 (human) (UniProt Q14012)
RPS6KA5 KD1 KD2 (human) = RPS6KA5 KD1 KD2 (human) (UniProt O75582)
RPS6KA1 KD1 KD2 (human) = RPS6KA1 KD1 KD2 (human) (UniProt Q15418)
PIM2 (human) = PIM2 (human) (UniProt Q9P1W9)
[1] = tested on: RPS6KB1 (human), P23443 [T412E]
MAPK14 (human) = MAPK14 (human) (UniProt Q16539)
PAK6 (human) = PAK6 (human) (UniProt Q9NQU5)
MAPK13 (human) = MAPK13 (human) (UniProt O15264)
RPS6KA3 KD1 KD2 (human) = RPS6KA3 KD1 KD2 (human) (UniProt P51812)
BRSK2 (human) = BRSK2 (human) (UniProt Q8IWQ3)
MAPK3 (human) = MAPK3 (human) (UniProt P27361)
PHKG1 (human) = PHKG1 (human) (UniProt Q16816)
NEK2 (human) = NEK2 (human) (UniProt P51955)
CSNK2A1 (human) = CSNK2A1 (human) (UniProt P68400)
MKNK1 (human) = MKNK1 (human) (UniProt Q9BUB5)
PIM3 (human) = PIM3 (human) (UniProt Q86V86)
[2] = tested on: SGK1 (human), O00141 [S422D]
MAPK15 (human) = MAPK15 (human) (UniProt Q8TD08)
LCK (mouse) = details: accession and sequence are those of the human protein
SRC (human) = SRC (human) (UniProt P12931)
EEF2K (human) = EEF2K (human) (UniProt O00418)
PAK7 (human) = PAK7 (human) (UniProt Q9P286)
CSNK1D (human) = CSNK1D (human) (UniProt P48730)
MAPK1 (human) = MAPK1 (human) (UniProt P28482)
Sequence of MAPK1 (human) (P28482 whole entry, looked up): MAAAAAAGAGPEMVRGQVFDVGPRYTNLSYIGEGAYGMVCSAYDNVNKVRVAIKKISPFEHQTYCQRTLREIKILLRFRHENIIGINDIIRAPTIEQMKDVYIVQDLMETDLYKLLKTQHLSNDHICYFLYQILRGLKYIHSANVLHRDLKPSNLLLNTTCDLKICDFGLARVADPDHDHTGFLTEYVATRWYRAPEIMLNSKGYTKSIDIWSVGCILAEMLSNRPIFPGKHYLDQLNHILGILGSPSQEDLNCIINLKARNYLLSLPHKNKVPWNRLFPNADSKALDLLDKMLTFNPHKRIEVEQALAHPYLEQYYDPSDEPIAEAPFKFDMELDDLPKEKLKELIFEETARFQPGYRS

Sequence of MAPK3 (human) (P27361 whole entry, looked up): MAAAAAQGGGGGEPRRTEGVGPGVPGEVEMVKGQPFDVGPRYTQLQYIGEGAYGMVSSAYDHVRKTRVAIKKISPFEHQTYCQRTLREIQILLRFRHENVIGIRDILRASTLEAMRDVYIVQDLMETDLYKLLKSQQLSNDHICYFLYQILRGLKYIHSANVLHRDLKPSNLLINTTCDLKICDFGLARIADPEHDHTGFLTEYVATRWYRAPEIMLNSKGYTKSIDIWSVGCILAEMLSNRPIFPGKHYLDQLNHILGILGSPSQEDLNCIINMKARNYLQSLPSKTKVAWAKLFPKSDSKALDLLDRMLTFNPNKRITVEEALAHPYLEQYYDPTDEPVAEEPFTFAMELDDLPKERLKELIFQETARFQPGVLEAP
Sequence of RPS6KA5 KD1 KD2 (human) (O75582 whole entry, looked up): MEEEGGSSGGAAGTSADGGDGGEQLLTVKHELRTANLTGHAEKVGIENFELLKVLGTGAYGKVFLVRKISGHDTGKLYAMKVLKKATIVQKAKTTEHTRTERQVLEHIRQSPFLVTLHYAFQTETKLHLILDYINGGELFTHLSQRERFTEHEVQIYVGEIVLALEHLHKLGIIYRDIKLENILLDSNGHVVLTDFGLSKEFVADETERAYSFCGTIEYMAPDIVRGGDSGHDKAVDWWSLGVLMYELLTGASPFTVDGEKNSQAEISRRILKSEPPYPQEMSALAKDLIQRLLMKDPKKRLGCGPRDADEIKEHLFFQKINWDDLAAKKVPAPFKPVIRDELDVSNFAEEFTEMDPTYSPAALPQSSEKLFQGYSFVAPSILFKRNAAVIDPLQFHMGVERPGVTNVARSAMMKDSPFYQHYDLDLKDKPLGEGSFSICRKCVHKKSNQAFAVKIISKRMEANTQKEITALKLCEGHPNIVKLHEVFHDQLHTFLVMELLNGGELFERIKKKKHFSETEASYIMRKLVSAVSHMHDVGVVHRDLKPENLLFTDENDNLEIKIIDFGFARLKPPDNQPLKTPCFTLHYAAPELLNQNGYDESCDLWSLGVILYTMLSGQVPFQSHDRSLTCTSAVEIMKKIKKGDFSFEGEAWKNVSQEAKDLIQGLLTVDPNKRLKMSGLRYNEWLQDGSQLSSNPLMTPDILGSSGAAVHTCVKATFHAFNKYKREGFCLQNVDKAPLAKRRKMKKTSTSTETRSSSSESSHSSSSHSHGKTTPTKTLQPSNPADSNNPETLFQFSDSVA
Sequence of INSRR (human) (P14616 whole entry, looked up): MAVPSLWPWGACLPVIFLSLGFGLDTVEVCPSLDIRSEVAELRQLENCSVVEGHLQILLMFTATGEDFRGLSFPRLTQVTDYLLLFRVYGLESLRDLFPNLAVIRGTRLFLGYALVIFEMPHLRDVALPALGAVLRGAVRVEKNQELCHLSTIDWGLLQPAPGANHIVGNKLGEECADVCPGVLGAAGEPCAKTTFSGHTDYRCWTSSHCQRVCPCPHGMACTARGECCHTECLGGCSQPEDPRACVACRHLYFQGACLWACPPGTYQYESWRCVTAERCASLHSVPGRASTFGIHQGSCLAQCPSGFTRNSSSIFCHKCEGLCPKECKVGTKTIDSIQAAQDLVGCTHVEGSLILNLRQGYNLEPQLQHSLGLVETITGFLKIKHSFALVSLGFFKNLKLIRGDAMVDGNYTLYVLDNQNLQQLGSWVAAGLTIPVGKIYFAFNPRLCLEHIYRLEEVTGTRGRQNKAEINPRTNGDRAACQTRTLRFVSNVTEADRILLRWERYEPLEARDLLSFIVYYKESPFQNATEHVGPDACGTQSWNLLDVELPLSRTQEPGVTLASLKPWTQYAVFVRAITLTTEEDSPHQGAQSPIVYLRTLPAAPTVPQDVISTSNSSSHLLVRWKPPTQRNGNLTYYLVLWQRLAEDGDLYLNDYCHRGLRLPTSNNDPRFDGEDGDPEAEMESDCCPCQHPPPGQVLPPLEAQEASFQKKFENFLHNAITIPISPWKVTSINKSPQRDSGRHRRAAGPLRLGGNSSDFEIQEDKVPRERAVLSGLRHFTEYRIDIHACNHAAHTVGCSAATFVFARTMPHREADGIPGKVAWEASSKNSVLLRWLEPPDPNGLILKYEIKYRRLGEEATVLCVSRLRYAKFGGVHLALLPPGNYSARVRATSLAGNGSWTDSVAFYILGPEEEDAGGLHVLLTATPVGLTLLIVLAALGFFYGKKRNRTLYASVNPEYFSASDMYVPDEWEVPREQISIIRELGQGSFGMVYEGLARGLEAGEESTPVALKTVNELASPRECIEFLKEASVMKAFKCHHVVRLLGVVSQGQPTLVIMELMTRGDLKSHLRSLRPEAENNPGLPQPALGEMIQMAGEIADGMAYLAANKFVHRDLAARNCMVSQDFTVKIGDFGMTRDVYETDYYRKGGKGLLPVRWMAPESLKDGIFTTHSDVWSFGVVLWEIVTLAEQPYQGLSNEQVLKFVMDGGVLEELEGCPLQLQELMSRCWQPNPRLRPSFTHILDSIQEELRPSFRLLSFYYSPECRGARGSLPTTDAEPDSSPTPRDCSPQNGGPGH
Sequence of MKNK1 (human) (Q9BUB5 whole entry, looked up): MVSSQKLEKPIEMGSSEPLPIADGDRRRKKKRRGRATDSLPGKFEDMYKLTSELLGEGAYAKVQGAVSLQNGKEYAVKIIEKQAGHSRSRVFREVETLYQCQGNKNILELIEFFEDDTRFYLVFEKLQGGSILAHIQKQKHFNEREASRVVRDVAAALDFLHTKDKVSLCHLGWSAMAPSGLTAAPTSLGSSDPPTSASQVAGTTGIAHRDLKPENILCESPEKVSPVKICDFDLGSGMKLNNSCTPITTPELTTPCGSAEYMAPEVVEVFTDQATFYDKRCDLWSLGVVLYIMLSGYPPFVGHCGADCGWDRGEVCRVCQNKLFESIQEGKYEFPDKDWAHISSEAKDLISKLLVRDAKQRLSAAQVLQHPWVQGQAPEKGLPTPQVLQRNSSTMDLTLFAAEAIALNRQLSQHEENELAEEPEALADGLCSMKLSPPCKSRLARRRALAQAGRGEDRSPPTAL
Sequence of SGK1 (human), O00141 [S422D] (O00141 whole entry S422D, looked up): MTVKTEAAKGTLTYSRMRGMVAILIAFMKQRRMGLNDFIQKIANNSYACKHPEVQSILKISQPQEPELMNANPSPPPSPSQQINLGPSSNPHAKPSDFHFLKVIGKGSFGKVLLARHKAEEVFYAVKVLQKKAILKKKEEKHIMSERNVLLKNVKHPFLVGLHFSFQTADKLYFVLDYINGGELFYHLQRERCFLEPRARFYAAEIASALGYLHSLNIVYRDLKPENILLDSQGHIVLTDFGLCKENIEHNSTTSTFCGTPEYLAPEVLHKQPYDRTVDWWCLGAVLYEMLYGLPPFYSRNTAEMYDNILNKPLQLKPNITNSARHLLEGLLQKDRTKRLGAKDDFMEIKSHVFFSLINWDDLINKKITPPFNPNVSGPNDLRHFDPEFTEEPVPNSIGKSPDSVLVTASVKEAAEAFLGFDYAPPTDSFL
Sequence of PHKG1 (human) (Q16816 whole entry, looked up): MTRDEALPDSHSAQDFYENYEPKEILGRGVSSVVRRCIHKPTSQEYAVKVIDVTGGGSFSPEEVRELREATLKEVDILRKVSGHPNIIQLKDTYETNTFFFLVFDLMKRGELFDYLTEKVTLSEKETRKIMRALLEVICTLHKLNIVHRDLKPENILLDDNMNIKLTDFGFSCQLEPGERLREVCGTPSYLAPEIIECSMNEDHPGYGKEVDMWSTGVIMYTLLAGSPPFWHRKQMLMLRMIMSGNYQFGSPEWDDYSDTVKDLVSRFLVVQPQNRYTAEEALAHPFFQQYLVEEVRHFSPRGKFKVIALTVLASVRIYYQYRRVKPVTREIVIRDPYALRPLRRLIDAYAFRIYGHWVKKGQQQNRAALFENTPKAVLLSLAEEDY
Sequence of EEF2K (human) (O00418 whole entry, looked up): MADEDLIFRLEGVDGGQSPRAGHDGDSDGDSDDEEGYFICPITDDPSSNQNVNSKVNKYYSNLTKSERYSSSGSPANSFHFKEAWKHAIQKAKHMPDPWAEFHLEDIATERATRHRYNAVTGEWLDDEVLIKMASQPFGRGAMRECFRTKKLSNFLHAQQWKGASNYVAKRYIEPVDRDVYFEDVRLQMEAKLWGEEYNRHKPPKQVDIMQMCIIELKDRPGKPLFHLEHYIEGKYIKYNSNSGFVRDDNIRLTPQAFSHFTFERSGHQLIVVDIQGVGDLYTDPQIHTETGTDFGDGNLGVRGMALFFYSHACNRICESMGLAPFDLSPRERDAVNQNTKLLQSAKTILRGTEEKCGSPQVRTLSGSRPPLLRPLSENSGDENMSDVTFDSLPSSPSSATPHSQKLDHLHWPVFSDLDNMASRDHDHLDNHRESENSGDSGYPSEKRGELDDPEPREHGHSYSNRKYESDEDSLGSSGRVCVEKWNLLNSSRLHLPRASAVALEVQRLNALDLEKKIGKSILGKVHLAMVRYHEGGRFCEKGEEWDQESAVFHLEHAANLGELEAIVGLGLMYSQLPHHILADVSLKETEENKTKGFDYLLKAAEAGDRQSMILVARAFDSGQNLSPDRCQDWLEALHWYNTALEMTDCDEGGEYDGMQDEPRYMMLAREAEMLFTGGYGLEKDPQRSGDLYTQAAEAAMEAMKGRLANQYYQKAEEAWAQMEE

COC(=O)Nc1ccc(-c2nc(N3CCOCC3)c3cnn(C4CCN(C(=O)OC)CC4)c3n2)cc1
IC50 (PIK3C3 (human)): > 10 µM
IC50 (PI4KB (human)): > 10 µM
IC50 (PI4KA (human)): > 3.33 µM
IC50 (PIK3C2A (human)): > 10 µM
IC50 (PIK3C2B (human)): 5.15 µM
per cent of control (DYRK1A (human); compound 1.0 µM): 111%
per cent of control (DYRK1A (human); compound 10.0 µM): 90%
per cent of control (CSK (human); compound 1.0 µM): 113%
per cent of control (CSK (human); compound 10.0 µM): 106%
per cent of control (YES1 (human); compound 1.0 µM): 109%
per cent of control (YES1 (human); compound 10.0 µM): 113%
per cent of control (INSRR (human); compound 1.0 µM): 88%
per cent of control (INSRR (human); compound 10.0 µM): 99%
per cent of control (EPHA2 (human); compound 1.0 µM): 106%
per cent of control (EPHA2 (human); compound 10.0 µM): 104%
per cent of control (CaMK1 (human); compound 1.0 µM): 97%
per cent of control (CaMK1 (human); compound 10.0 µM): 102%
per cent of control (RPS6KA5 KD1 KD2 (human); compound 1.0 µM): 83%
per cent of control (RPS6KA5 KD1 KD2 (human); compound 10.0 µM): 86%
per cent of control (RPS6KA1 KD1 KD2 (human); compound 1.0 µM): 100%
per cent of control (RPS6KA1 KD1 KD2 (human); compound 10.0 µM): 102%
per cent of control (PIM2 (human); compound 1.0 µM): 81%
per cent of control (PIM2 (human); compound 10.0 µM): 80%
per cent of control ([1]; compound 1.0 µM): 94%
per cent of control ([1]; compound 10.0 µM): 93%
per cent of control (MAPK14 (human); compound 1.0 µM): 97%
per cent of control (MAPK14 (human); compound 10.0 µM): 88%
per cent of control (PAK6 (human); compound 1.0 µM): 99%
per cent of control (PAK6 (human); compound 10.0 µM): 90%
per cent of control (MAPK13 (human); compound 1.0 µM): 14%
per cent of control (MAPK13 (human); compound 10.0 µM): 10%
per cent of control (RPS6KA3 KD1 KD2 (human); compound 1.0 µM): 88%
per cent of control (RPS6KA3 KD1 KD2 (human); compound 10.0 µM): 87%
per cent of control (BRSK2 (human); compound 1.0 µM): 95%
per cent of control (BRSK2 (human); compound 10.0 µM): 88%
per cent of control (MAPK3 (human); compound 1.0 µM): 90%
per cent of control (MAPK3 (human); compound 10.0 µM): 97%
per cent of control (PHKG1 (human); compound 1.0 µM): 108%
per cent of control (PHKG1 (human); compound 10.0 µM): 93%
per cent of control (NEK2 (human); compound 1.0 µM): 93%
per cent of control (NEK2 (human); compound 10.0 µM): 101%
per cent of control (CSNK2A1 (human); compound 1.0 µM): 99%
per cent of control (CSNK2A1 (human); compound 10.0 µM): 92%
per cent of control (MKNK1 (human); compound 1.0 µM): 96%
per cent of control (MKNK1 (human); compound 10.0 µM): 92%
per cent of control (PIM3 (human); compound 1.0 µM): 87%
per cent of control (PIM3 (human); compound 10.0 µM): 80%
per cent of control ([2]; compound 1.0 µM): 85%
per cent of control ([2]; compound 10.0 µM): 77%
per cent of control (MAPK15 (human); compound 1.0 µM): 94%
per cent of control (MAPK15 (human); compound 10.0 µM): 98%
per cent of control (LCK (mouse); compound 1.0 µM): 100%
per cent of control (LCK (mouse); compound 10.0 µM): 91%
per cent of control (SRC (human); compound 1.0 µM): 90%
per cent of control (SRC (human); compound 10.0 µM): 67%
per cent of control (EEF2K (human); compound 1.0 µM): 97%
per cent of control (EEF2K (human); compound 10.0 µM): 106%
per cent of control (PAK7 (human); compound 1.0 µM): 97%
per cent of control (PAK7 (human); compound 10.0 µM): 87%
per cent of control (CSNK1D (human); compound 1.0 µM): 90%
per cent of control (CSNK1D (human); compound 10.0 µM): 92%
per cent of control (MAPK1 (human); compound 1.0 µM): 109%
per cent of control (MAPK1 (human); compound 10.0 µM): 108%
